Results from US7786128B2, “Indole or benzimidazole derivatives as CB1 inverse agonists” (Hoffmann-La Roche Inc., priority 2004, dated 2010).
Like-named read-outs stand apart in the source and are kept apart here.

Assays:
[1] = target: T1, human cannabis CB1 receptor (Homo sapiens, UniProt P21554); assay: Affinity for cannabinoid CB1 receptors, [3H]-CP-55,940 radioligand binding on HEK cell membranes
T1 construct: expressed in transfected cells; host or cells: human embryonic kidney (HEK) cells, Semliki Forest Virus system
T1 sequence (P21554 whole entry): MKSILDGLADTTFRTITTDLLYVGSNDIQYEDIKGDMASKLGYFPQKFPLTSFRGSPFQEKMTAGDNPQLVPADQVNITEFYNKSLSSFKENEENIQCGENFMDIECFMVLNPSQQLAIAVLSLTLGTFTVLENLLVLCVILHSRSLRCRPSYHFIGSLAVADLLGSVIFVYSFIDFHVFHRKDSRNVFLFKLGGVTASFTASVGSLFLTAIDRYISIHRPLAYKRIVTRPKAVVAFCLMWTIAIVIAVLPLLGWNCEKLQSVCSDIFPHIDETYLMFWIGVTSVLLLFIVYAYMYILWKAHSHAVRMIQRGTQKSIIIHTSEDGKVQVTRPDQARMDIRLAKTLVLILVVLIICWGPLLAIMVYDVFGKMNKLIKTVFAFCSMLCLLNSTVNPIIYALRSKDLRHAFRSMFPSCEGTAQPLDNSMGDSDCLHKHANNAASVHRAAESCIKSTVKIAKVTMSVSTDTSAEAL
Protocol: The affinity of the compounds of the invention for cannabinoid CB1 receptors was determined using membrane preparations of human embryonic kidney (HEK) cells in which the human cannabis CB1 receptor is transiently transfected using the Semliki Forest Virus system in conjunction with [3H]-CP-55,940 as radioligand. After incubation of a freshly prepared cell membrane preparation with the [3H]-ligand, with or without addition of compounds of the invention, separation of bound and free ligand was performed by filtration over glassfiber filters. Radioactivity on the filter was measured by liquid scintillation counting.
The compounds of formula (I) show an excellent affinity for the CB1 receptor, determined with the experimental conditions described in Devane et. al. Mol. Pharmacol. 34 (1988) 605-613.

[2] = wild-type versus CB1 receptor knockout mice; cited from earlier work
[3] = doses of 5, 10 and 20 mg daily; cited from earlier work
[4] = affinity for the CB1 receptor, HEK membranes, [3H]-CP-55,940, read-out: IC50

In the case of CCCCNC(=O)c1ccc2c(c1)cc(COc1ccccc1)n2Cc1ccc(OC(F)(F)F)cc1 [Example 101, 2-phenoxymethyl-1-(4-trifluoromethoxy-benzyl)-1H-indole-5-carboxylic acid butylamide], the IC50 [1, 4] is reported as 20 nM.

CCCCNC(=O)c1ccc2c(c1)nc(COc1ccccc1)n2Cc1ccc(OC(F)(F)F)cc1 [Example 61, 2-Phenoxymethyl-1-(4-trifluoromethoxy-benzyl)-1H-benzoimidazole-5-carboxylic acid butyl-amide] gave an IC50 [1, 4] of 30 nM.

Compound CC(Oc1ccccc1)c1nc2ccc(N3CCN(S(=O)(=O)N(C)C)CC3)cc2n1Cc1ccc(Cl)cc1 (centres unmarked) [Example 51, 4-[3-(4-chloro-benzyl)-2-(1-phenoxy-ethyl)-3H-benzoimidazol-5-yl]-piperazine-1-sulfonic acid dimethylamide] has an IC50 [1] of 60 nM.

In the case of Cc1c(C(=O)NN2CCCCC2)nn(-c2ccc(Cl)cc2Cl)c1-c1ccc(Cl)cc1 [SR 141716], the food intake [2] is given as “reduces food intake in wild-type but not knockout mice” and the “body weight compared to placebo” value [3] is given as “significantly reduced body weight”.
